Usually IC50 stands for the concentration that gives 50% inhibition. Higher therefore signals lower potency.

For this test, the target named is T1, P2Y12 receptor (Homo sapiens, UniProt Q9H244).
T1 construct: expressed in transfected cells; host or cells: CHO cells (membranes)
Put plainly: Functional inhibition of 2-Me-S-ADP induced P2Y12 signalling (35S-GTPγS binding, membranes from P2Y12 transfected CHO-cells). The test is classed as biochemical. The note with it: EC80 concentration of agonist 2-methyl-thio-adenosine diphosphate, 30° C. for 45 min. Here is the method: Functional inhibition of the P2Y12 receptor can be measured by in vitro assays using cell membranes from P2Y12 transfected CHO-cells, the methodology is indicated below.
Functional inhibition of 2-Me-S-ADP induced P2Y12 signalling: 5 μg of membranes were diluted in 200 μl of 200 mM NaCl, 1 mM MgCl2, 50 mM HEPES (pH 7.4), 0.01% BSA, 30 μg/ml saponin and 10 μM GDP. To this was added an EC80 concentration of agonist (2-methyl-thio-adenosine diphosphate), the required concentration of test compound and 0.1 μCi ^35S-GTPγS. The reaction was allowed to proceed at 30° C. for 45 min. Samples were then transferred on to GF/B filters using a cell harvester and washed with wash buffer (50 mM Tris (pH 7.4), 5 mM MgCl2, 50 mM NaCl). Filters were then covered with scintillate and counted for the amount of ^35S-GTPγS retained by the filter. Maximum activity was that determined in the presence of the agonist and minimum activity in the absence of the agonist following subtraction of the value determined for non-specific activity. The effect of compounds at various concentrations was plotted according to the equation y=A+((B−A)/(1+((C/x)ˆD))) and IC50 estimated where
A is the bottom plateau of the curve i.e. the final minimum y value
B is the top of the plateau of the curve i.e. the final maximum y value
C is the x value at the middle of the curve. This represents the log EC50 value when A+B=100 […]
Background: GTPγS is a poorly hydrolysed GTP analogue; its binding reports G protein activation.

Molecules are shown by their SMILES.

T1 sequence (Q9H244 whole entry): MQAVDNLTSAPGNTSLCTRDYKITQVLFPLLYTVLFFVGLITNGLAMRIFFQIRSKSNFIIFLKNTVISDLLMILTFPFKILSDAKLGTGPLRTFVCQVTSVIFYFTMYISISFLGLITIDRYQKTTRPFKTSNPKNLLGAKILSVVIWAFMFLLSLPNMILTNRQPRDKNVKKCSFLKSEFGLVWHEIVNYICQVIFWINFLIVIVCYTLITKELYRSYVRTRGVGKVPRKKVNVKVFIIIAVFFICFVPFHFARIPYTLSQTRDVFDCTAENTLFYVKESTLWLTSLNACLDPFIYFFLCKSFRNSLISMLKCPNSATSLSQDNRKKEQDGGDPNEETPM

`CCOC(=O)c1cc(C#N)c(N2CCC(c3nnc(-c4ccccc4)[nH]3)CC2)nc1C` [Example 3, Ethyl 5-cyano-2-methyl-6-[4-(5-phenyl-4-h-1,2,4-triazol-3-yl)piperidin-1-yl]nicotinate]: the IC50 was found to be 330 nM.
Regarding `CCOC(=O)c1cc(C#N)c(N2CCN(Cc3cn(-c4ccccc4)nn3)CC2)nc1C` [Example 2, Ethyl 5-cyano-2-methyl-6-{4-[(1-phenyl-1H-1,2,3-triazol-4-yl)methyl]piperazin-1-yl}nicotinate], the IC50 turned out to be 690 nM.

(Values after patent US20080032992A1, “New Pyridine Analogues V” (ASTRAZENECA AB, priority 2006, published 2008).)
